Reference: patent US20240058328A1, “MASITINIB FOR THE TREATMENT OF ALZHEIMER'S DISEASE” (AB SCIENCE, priority 2020, published 2024)

Tested on: patients with Alzheimer's disease
Assay: Phase 3 study AB09004: change from baseline in ADCS-ADL score
Assay type: in vivo, human
Design: key to δLSM (ADCS-ADL): LSM difference in ADCS-ADL change; positive = improvement
Settings: 4.5 mg/kg/day; for ΔLSM (ADCS-ADL): vs placebo, week 24; for δLSM (ADCS-ADL): week 24 from baseline
Description: An international, multicenter, randomized, double-blind, placebo-controlled phase 3 study was conducted with the objective to evaluate oral masitinib at a dose of 4.5 mg/kg/day as a treatment for Alzheimer's disease.
Eligible patients, aged at least 50 years, were diagnosed with dementia of Alzheimer's type according to Diagnostic and Statistical Manual of Mental Disorders (DSM)-IV criteria, and probable Alzheimer's disease according to NINCDS-ADRDA (National Institute of Neurological and Communicative Diseases and Stroke/Alzheimer's Disease and Related Disorders Association) criteria. […] Patients with any other cause of dementia not due to Alzheimer's disease were ineligible for the study.
Eligible patients were treated during 24 weeks with masitinib at a dose of 4.5 mg/kg/day (mg per kilo body weight per day) or with placebo. Treatment was administered as add-on therapy in patients who had been treated for a minimum of 6 months with a stable dose of cholinesterase inhibitors (donepezil, rivastigmine or galantamine) and/or memantine, with no changes foreseen in therapy throughout the study.
Primary analysis was based on the co-primary endpoints of: • Change from baseline in Alzheimer's Disease Cooperative Study Activities of Daily Living (ADCS-ADL) score. The ADCS-ADL assesses the competence of patients with Alzheimer's disease in basic and instrumental activities of daily living (ADLs). • Change from baseline in Alzheimer's Disease Assessment Scale-Cognitive Subscale (ADAS-Cog). The ADAS-Cog assesses cognition and memory.
Treatment effect (masitinib versus placebo) was assessed based on absolute change from baseline to week 24 by using an analysis of covariance model (ANCOVA linear model) with the following factors: treatment, baseline value, and stratification criteria of baseline MMSE score, age, ADCS-ADL total score, and ADAS-Cog total score.
For ADCS-ADL, the global score (i.e., the sum of 23 items rated by the caregiver) was used with a range from 0 to 78, wherein 78 implies full functioning with no impairment. Thus, a higher score signifies greater functional ability, while a lower score signifies greater (worse) impairment. Results are expressed as a least-squares means difference (δLSM) of absolute change in ADCS-ADL score from baseline; that is to say, the change over time in the ADCS-ADL score, or in other words the difference between the ADCS-ADL score at baseline (before treatment initiation) and the ADCS-ADL score after treatment with masitinib or with placebo. An increase in ADCS-ADL score with respect to baseline (i.e., a positive δLSM) indicates an improvement in the patient and therefore disease stability, whereas a decrease in ADCS-ADL score with respect to baseline (i.e., negative δLSM) indicates a worsening in the patient and therefore disease progression. Treatment-effect is reported as the difference between treatment-arms (ΔLSM) (calculated as δLSM[masitinib] minus δLSM[placebo]), with a positive value indicating a beneficial effect of treatment with masitinib as compared to treatment with placebo. In a scenario where both treatment-arms show worsening in activities of daily living (i.e., a negative δLSM), then a positive ΔLSM indicates a beneficial treatment effect for masitinib, i.e., the rate of decline in masitinib treated patients is slower than that of patients from the placebo-arm.
The comparison was carried out using the following information: • δLSM: least-squares means difference of absolute change in endpoint score at week 24 from baseline, either according to ADAS-Cog assessment or to ADCS-ADL assessment. • ΔLSM: Difference between treatment-arms (treatment-effect) calculated as δLSM[masitinib] minus δLSM[placebo]. • Δsub/Δoverall: Ratio of subpopulation's placebo-controlled treatment-effect (ΔLSM at W24 for masitinib 4.5 mg/kg/d parallel arm) versus overall study population's placebo-controlled treatment-effect (ΔLSM at W24 for masitinib 4.5 mg/kg/d parallel arm). […]

[1] = Baseline ADCS-ADL >47 (Table 11)

Cc1ccc(NC(=O)c2ccc(CN3CCN(C)CC3)cc2)cc1Nc1nc(-c2cccnc2)cs1 [masitinib, 4-(4-methylpiperazin-1-ylmethyl)-N-[4-methyl-3-(4-pyridin-3ylthiazol-2-ylamino)phenyl]benzamide]
ΔLSM (ADCS-ADL) (Baseline ADAS-Cog >35): −0.788 points | ΔLSM (ADCS-ADL) (Baseline ADCS-ADL <32): −0.9123 points | δLSM (ADCS-ADL) (Baseline ADCS-ADL <32): 0.8656 | ΔLSM (ADCS-ADL) (Baseline ADCS-ADL <35): 0.2942 points | δLSM (ADCS-ADL) (Baseline ADCS-ADL <35): 0.9816 | ΔLSM (ADCS-ADL) (Baseline ADCS-ADL <38): −0.2109 points | δLSM (ADCS-ADL) (Baseline ADCS-ADL <38): 1.9901 | ΔLSM (ADCS-ADL) (Baseline ADCS-ADL <41): 1.0592 points | δLSM (ADCS-ADL) (Baseline ADCS-ADL <41): 3.2426 | ΔLSM (ADCS-ADL) (Baseline ADCS-ADL <47): 0.9542 points | δLSM (ADCS-ADL) (Baseline ADCS-ADL <47): 2.0776 | ΔLSM (ADCS-ADL) (Baseline ADCS-ADL <50): +0.3062 points | ΔLSM (ADCS-ADL) (Baseline ADCS-ADL <50, listed as M4.5, 4.5 mg/kg/day): 0.3062 points | δLSM (ADCS-ADL) (Baseline ADCS-ADL <50): 1.5300 | ΔLSM (ADCS-ADL) (Baseline ADCS-ADL >39): +2.0733 points | ΔLSM (ADCS-ADL) (Baseline ADCS-ADL >39, listed as M4.5, 4.5 mg/kg/day): 2.0733 points | δLSM (ADCS-ADL) (Baseline ADCS-ADL >39): 0.6655 | ΔLSM (ADCS-ADL) [1]: 2.1676 points | δLSM (ADCS-ADL) [1]: 1.0869 | ΔLSM (ADCS-ADL) (Baseline ADCS-ADL >55): +3.1871 points | ΔLSM (ADCS-ADL) (Baseline ADCS-ADL >55, listed as M4.5, 4.5 mg/kg/day): 3.1871 points | δLSM (ADCS-ADL) (Baseline ADCS-ADL >55): 0.8306 | ΔLSM (ADCS-ADL) (Baseline ADCS-ADL ≤39): +0.7132 points | ΔLSM (ADCS-ADL) (Baseline ADCS-ADL ≤39, listed as M4.5, 4.5 mg/kg/day): 0.7132 points | δLSM (ADCS-ADL) (Baseline ADCS-ADL ≤39): 2.8513 | ΔLSM (ADCS-ADL) (Baseline ADCS-ADL ≤55): +0.4577 points | ΔLSM (ADCS-ADL) (Baseline ADCS-ADL ≤55, listed as M4.5, 4.5 mg/kg/day): 0.4577 points | δLSM (ADCS-ADL) (Baseline ADCS-ADL ≤55): 1.3484 | ΔLSM (ADCS-ADL) (Baseline ADCS-ADL ≥32): 1.9799 points | δLSM (ADCS-ADL) (Baseline ADCS-ADL ≥32): 0.9536 | ΔLSM (ADCS-ADL) (Baseline ADCS-ADL ≥35): 2.0209 points | δLSM (ADCS-ADL) (Baseline ADCS-ADL ≥35): 0.9909 | ΔLSM (ADCS-ADL) (Baseline ADCS-ADL ≥38): +2.3285 points | ΔLSM (ADCS-ADL) (Baseline ADCS-ADL ≥38, listed as M4.5, 4.5 mg/kg/day): 2.3285 points | δLSM (ADCS-ADL) (Baseline ADCS-ADL ≥38): 1.0071 | ΔLSM (ADCS-ADL) (Baseline ADCS-ADL ≥41): 2.0192 points | δLSM (ADCS-ADL) (Baseline ADCS-ADL ≥41): 0.8077 | ΔLSM (ADCS-ADL) (Baseline ADCS-ADL ≥47): 2.1676 points | δLSM (ADCS-ADL) (Baseline ADCS-ADL ≥47): 1.0869 | ΔLSM (ADCS-ADL) (Baseline ADCS-ADL ≥50): +3.2315 points | ΔLSM (ADCS-ADL) (Baseline ADCS-ADL ≥50, listed as M4.5, 4.5 mg/kg/day): 3.2315 points | δLSM (ADCS-ADL) (Baseline ADCS-ADL ≥50): 0.7638 | ΔLSM (ADCS-ADL) (MMSE <13): −9.2849 points | δLSM (ADCS-ADL) (MMSE <13): −10.9758 | ΔLSM (ADCS-ADL) (MMSE <14): −3.5751 points | δLSM (ADCS-ADL) (MMSE <14): −4.6507 | ΔLSM (ADCS-ADL) (MMSE <15): −0.5657 points | δLSM (ADCS-ADL) (MMSE <15): −3.1413 | ΔLSM (ADCS-ADL) (MMSE <16): −0.6926 points | δLSM (ADCS-ADL) (MMSE <16): −2.3199 | ΔLSM (ADCS-ADL) (MMSE <17): 0.5605 points | δLSM (ADCS-ADL) (MMSE <17): −1.0314 | ΔLSM (ADCS-ADL) (MMSE [12-20]): +1.3770 points | ΔLSM (ADCS-ADL) (MMSE [12-20], listed as M4.5, 4.5 mg/kg/day): 1.3770 points
